Tests used:
[1] = system: aortic rings of wild-type mice; assay: Force tension (wire) myography, vascular relaxation of isolated wild-type mouse aortic rings; assay type: cell-based
Description: Mouse aorta was isolated and cleaned in ice-cold Krebs-Ringer-bicarbonate solution containing the following (in mM): 118.3 NaCl, 4.7 KCl, 1.6 CaCl2, 1.2 KH2 PO4, 25 NaHCO3, 1.2 MgSO4, and 11.1 dextrose. The aorta was immersed in a bath filled with constantly oxygenated Krebs buffer at 37° C. Equal size thoracic aortic rings (2 mm) were mounted using a microscope, ensuring no damage to the smooth muscle or endothelium. One end of the aortic rings was connected to a transducer, and the other to a micromanipulator. Aorta was passively stretched to an optimal resting tension using the micromanipulator, after which a dose of 60 mM KCl was administered, and repeated after a wash with Krebs buffer. After these washes, all vessels were allowed to equilibrate for 20-30 min in the presence of indomethacin (3 μM). Phenylephrine (1 μM) was administered to induce vasoconstriction. A dosedependent response (1 nM to 10 μM), with the muscarinic agonist, ACH or nitric oxide donor, SNP, was then performed as necessary. The responses were repeated in the presence of inhibitors. Relaxation responses were calculated as a percentage of tension following pre-constriction. Sigmoidal dose-response curves were fitted to data with the minimum constrained to 0. Two to four rings were isolated from each animal and the number of animals in each group (n) was 6.

Arg2 mRNA = Arg2 mRNA in isolated mice aorta (real-time PCR); assay type: cell-based, mouse; conditions: TSA 200 nmol/L, 18 hours
Description: Total RNA was extracted from segments of mice aortas and HAEC using Trizol and PureLink (Invitrogen). RNA was then reverse transcribed with oligo dT primers to obtain cDNA and quantitative real time PCR (Applied Biosystems) was performed using SYBR Green Supermix mix (Applied Biosystems) whereas semiquantitative RTPCR was performed using conventional Biorad PCR machine and the following primer sets:
Real Time PCR data are expressed as “fold change”, which is calculated as 2-ΔΔCt.

human ARG2 promoter = assay: Human Arg2 promoter assay using luciferase activity in HAECs; assay type: cell-based
Description: Chromosomal DNA was prepared from HAECs using Trizol reagent as per manufacturer's protocol (Life sciences). Promoter fragments of Arg2 were amplified by PCR using specific primer sets as follows.
PI Forward 5′-GGGCTCGAGTGAGGTGAAATAAATTTCAGGAGTTTA-3′ (SEQ ID NO: 24); Reverse 5′-GCCAAGCTTAGCCGGGAGTGAGCGCCACCGCCC-3′ (SEQ ID NO: 25), 1 Kb; PII Forward 5′-GGGCTCGAGATAACCAGCGCTCCCGTTATTCAG-3′ (SEQ ID NO: 26); Reverse 5′-GCCAAGCTTAGCCGGGAGTGAGCGCCACCGCCC-3′ (SEQ ID NO: 27), 0.3 Kb; PIII Forward 5′-GGGCTCGAGGTTCAGGAACCTGGCATGGGCCGG-3′ (SEQ ID NO: 28); Reverse 5′-GCCAAGCTTAGCCGGGAGTGAGCGCCACCGCCC-3′ (SEQ ID NO: 29), 0.65 Kb; PIV Forward 5′-GGGCTCGAGTGAGGTGAAATAAATTTCAGGAGTTTA-3′ (SEQ ID NO: 30); Reverse 5′-GCCAAGCTTCCGGCCCATGCCAGGTTCCTGAAC-3′ (SEQ ID NO: 31), 0.3 kb.
These were cloned into the restriction sites for XhoI and HindIII on the pGL3-enhancer vector (Promega Co.). HAECs were transfected with the plasmids using Fugene 6 reagent (Roche Co.) and luciferase activity was measured by Dual-luciferase reporter assay system (Promega Co.). The luciferase activity was reported as relative luciferase units by dividing firefly luciferase activity by Renilla luciferase activity.

HDAC = conditions: cited from earlier work
SIRT = conditions: cited from earlier work

CC(/C=C/C(=O)NO)=C\[C@@H](C)C(=O)c1ccc(N(C)C)cc1 [TSA, trichostatin A]
SNP-mediated (endothelium-independent) vasorelaxation versus vehicle-only control ([1]; TSA 200 nmol/L or MGCD0103 1 μmol/L, 18 hours): no significant difference | Emax acetylcholine-mediated (endothelium-dependent) vasorelaxation ([1]; TSA 200 nmol/L, 18 hours preincubation, n=6): 31.24±7.8% | Arg2 mRNA (Arg2 mRNA): substantially upregulated | Arg2 promoter activity (luciferase) (human ARG2 promoter; TSA 1 μmol/L, 8 hours, versus vehicle): increased | Arg2 promoter activity, dose dependence (human ARG2 promoter; increasing doses of TSA): dose dependent | IC50 (HDAC): 1.8 nM | block of SIRT (SIRT): do not block
